In patent publication US11241475B2, “Preventive and/or therapeutic agent for osteogenesis imperfecta and other diseases” (Pharma Foods International Co., Ltd., priority 2016, dated 2022):
No end group written: not given here.

Tests used:
[1] = Effect on body weight (Example 7); assay type: in vivo; details: rats, days 1, 3, 5 and 7; peptide 1, 10 or 100 mg/kg/day oral, hGH 500 μg/kg/day subcutaneous; FIG. 24
Procedure: The synthetic peptide No. 1 or water for injection (control) was administered to male Crlj:WI rats at the age of four weeks by oral gavage using a gastric tube once a day for seven days (n=10 in each group). The dosage of the synthetic peptide was 1, 10 or 100 mg/kg/day. As a positive control, human growth hormone (hGH) (Norditropin, Japan Standard Commodity Classification Number: 872412) was subcutaneously administered at 500 μg/kg/day once a day for seven days. The body weight was measured on days 1, 3, 5 and 7 of administration.

[2] = Digestion test using artificial gastric juice (Example 11); assay type: in vitro ADME; details: 10 mg in 1 mL, pepsin, pH 3.0, 37° C., 60 and 120 minutes, HPLC; FIG. 35
Procedure: A test using artificial gastric juice was performed on the synthetic peptide No. 1. Ten milligrams of the synthetic peptide No. 1 was dissolved in 1 mL of artificial gastric juice (0.2% NaCl, 0.32% pepsin, 2.4% diluted hydrochloric acid, adjusted to pH 3.0), and the mixture was allowed to react under shaking at 37° C. Samples were collected before the reaction and 60 and 120 minutes after the reaction, and subjected to HPLC [column: ODS column (size: diameter 46 mm×500 mm, SHIMADZU); mobile phase: (A) 0.05% TFA, (B) 90% acetonitrile/0.05% TFA; gradient: 2% B (0 min), 20% B (50 min), 100% B (50.1 min), 100% B (55 min); detection: UV 215 nm] to examine whether the synthetic peptide No. 1 was decomposed by the gastric juice (resistance to the gastric juice).

[3] = Digestion test using artificial intestinal juice (Example 11); assay type: in vitro ADME; details: 10 mg in 1 mL, pancreatin, pH 6.8, 37° C., 120 minutes and overnight, HPLC; FIG. 36
Procedure: Ten milligrams of the synthetic peptide No. 1 was dissolved in 1 mL of artificial intestinal juice (0.34% KH2PO4, 0.36% Na2HPO4, 1% pancreatin, adjusted to pH 6.8), and the mixture was allowed to react under shaking at 37° C. Samples were collected before the reaction, 120 minutes after the reaction and after overnight reaction, and subjected to HPLC [column: ODS column (size: diameter 46 mm×500 mm, SHIMADZU); mobile phase: (A) 0.05% TFA, (B) 90% acetonitrile/0.05% TFA; gradient: 2% B (0 min), 20% B (50 min), 100% B (50.1 min), 100% B (55 min); detection: UV 215 nm] to examine whether the synthetic peptide No. 1 was decomposed by the intestinal juice (resistance to the intestinal juice).

decomposition by artificial gastric juice (resistance to the gastric juice) [2]: not decomposed
Sequence: VNPESEEE [synthetic peptide No. 1, Val-Asn-Pro-Glu-Ser-Glu-Glu-Glu]
change in the body weight [1]: No significant change
decomposition by artificial intestinal juice (resistance to the intestinal juice) [3]: totally decomposed into a peptide having the sequence of the synthetic peptide No. 2
